Reference: US20100104661A1, “DISCONTINUOUS METHODS OF TREATING CANCER” (priority 2006, published 2010)

How the values were obtained:
[1] = tested on: NSCLC; settings: 100 mg/m^2 in patients previously treated with chemotherapy; cited from earlier work
[2] = tested on: 22Rv1 prostate tumor xenografts; assay: 22Rv1 prostate tumor xenograft, second experiment (lonafarnib 5 days on/5 days off, docetaxel once every 10 days); format: in vivo, male athymic nude mice; settings: single-agent docetaxel 20 mpk i.p. once every 10 days; after 24 days
Description: (§1) Intermittent dosing of lonafarnib at 60 mpk BID around the administration of docetaxel was tested in two experiments using the 22Rv1 androgen-independent prostate cancer xenograft model. In both experiments 22Rv1 prostate tumor xenografts were grown in male athymic nude mice. When tumor volumes were approximately 100 mm^3, the animals were randomized (n=10 per treatment group) for grouping. […] In addition, tumor regressions were observed when intermittent lonafarnib was combined with docetaxel.
The second experiment (see FIG. 3) was also performed with male mice (n=10 per treatment group) bearing 22Rv1 prostate tumor xenografts that were approximately 100 mm^3 in volume. Lonafarnib was administered at 30 mpk BID continuously or 60 mpk BID intermittently (5 days on/5 days off). Docetaxel was administered at 20 mpk once every 10 days after the second dose of lonafarnib. After 24 days of treatment, single-agent docetaxel inhibited 22Rv1 tumor growth by 78%. Continuous treatment with single-agent lonafarnib at 30 mpk BID inhibited tumor growth by 68% and intermittent dosing of single-agent lonafarnib at 60 mpk BID inhibited tumor growth by 78%. When combined with docetaxel, continuous treatment with 30 mpk BID lonafarnib caused 22Rv1 tumors to regress by 10%. However, when combined with docetaxel, intermittent lonafarnib (60 mpk BID) caused the tumors to regress by 37%. […]

[3] = tested on: 22Rv1 prostate tumor xenografts; assay: 22Rv1 prostate tumor xenograft, first experiment (lonafarnib 3.5 days on/3.5 days off, docetaxel once weekly); format: in vivo, male athymic nude mice; settings: single-agent docetaxel 20 mpk i.p. once weekly; after 3 weeks (21 days)
Description: as §1
In the first experiment (see FIG. 1) male mice (n=10 per treatment group) bearing 22Rv1 tumor xenografts were treated with lonafarnib administered at either 30 mpk BID continuously or 60 mpk BID intermittently (3.5 days on/3.5 days off). Docetaxel was administered at 20 mpk once weekly after the fourth dose of lonafarnib. Tumor volumes were measured twice weekly. After 3 weeks (21 days) of treatment, single-agent docetaxel inhibited 22Rv1 tumor growth by 66%. Continuous treatment with single-agent lonafarnib at 30 mpk BID inhibited tumor growth by 85% and intermittent dosing of single-agent lonafarnib at 60 mpk BID inhibited tumor growth by 80%. When combined with weekly administration of docetaxel, continuous treatment with 30 mpk BID lonafarnib caused 22Rv1 tumors to regress by 23%. However, when combined with docetaxel, intermittent lonafarnib (60 mpk BID) caused the tumors to regress by 46%. […]

[4] = tested on: AIDS-related Kaposi's sarcoma; settings: 135 mg/m^2 every 3 weeks versus 100 mg/m^2 every 2 weeks; cited from earlier work
[5] = tested on: node-positive breast cancer; settings: adjuvant, sequentially to doxorubicin-containing chemotherapy; total population of patients with receptor-positive and receptor-negative tumors; cited from earlier work

| SMILES | toxicity at higher dose [1] | inhibition of 22Rv1 tumor growth [2] [%] | inhibition of 22Rv1 tumor growth [3] [%] | toxicity of dosing schedules [4] | effect on disease-free and overall survival [5] |
| --- | --- | --- | --- | --- | --- |
| CC(=O)O[C@@]12CO[C@@H]1C[C@H](O)[C@@]1(C)C(=O)[C@H](O)C3=C(C)[C@@H](OC(=O)[C@H](O)[C@@H](NC(=O)OC(C)(C)C)c4ccccc4)C[C@@](O)([C@@H](OC(=O)c4ccccc4)[C@H]21)C3(C)C [docetaxel] | associated with increased hematologic toxicity, infection, and treatment related mortality | 78 | 66 |  |  |
| CC(=O)O[C@H]1C(=O)[C@@]2(C)[C@H]([C@H](OC(=O)c3ccccc3)[C@]3(O)C[C@H](OC(=O)[C@H](O)[C@@H](NC(=O)c4ccccc4)c4ccccc4)C(C)=C1C3(C)C)[C@]1(OC(C)=O)CO[C@@H]1C[C@@H]2O [Taxol, paclitaxel] |  |  |  | more toxic than the latter | overall favorable effect on disease-free and overall survival |
